Experimental data taken from PMC9382865, “Infigratinib Reduces Fibroblast Growth Factor 23 (FGF23) and Increases Blood Phosphate in Tumor‐Induced Osteomalacia” (JBMR Plus, 2022).

Assays:
[1] = Strength assessments and patient-reported quality-of-life outcomes; format: in vivo, human; set-up: RAND – Emotional well-being: scale not given here; conditions: for Grip Strength Evaluation: baseline 15+/-12; for PROMIS – Mobility Item Bank T score (higher = better): baseline 38+/-7; for RAND – Role limitations due to physical health problems: baseline 44+/-13; for RAND SF-36 Physical Functioning (0-100, higher better): baseline 46+/-19; for RAND – Energy/Fatigue: baseline 50+/-29; for RAND – Bodily Pain: baseline 52+/-29; for PROMIS – Fatigue 8A Short Form T score (higher = increased fatigue): baseline 55+/-8; for PROMIS – Pain Interference 8A short form T score (higher = increased pain interference): baseline 56+/-4; for RAND – Social functioning: baseline 59+/-37; for RAND – General health perceptions: baseline 60+/-11; for RAND – Emotional well-being: baseline 67+/-15; for RAND – Role limitations due to emotional health problems: baseline 67 +/-27; for Pinch Test: baseline 6.8 +/-4; for 5x Sit to stand: baseline 15+/-7; for DASH score (0 no disability, 100 severe disability): baseline 16+/-5
Experimental: (§1) Safety, tolerability, and efficacy were evaluated during in‐person visits every 4 weeks at the NIH Clinical Center and included a physical exam, ophthalmologic exam, patient‐reported outcome measures and strength assessments. The Disabilities of Arm Shoulder and Hand Outcome Measurement (DASH) questionnaire was used to measure self‐reported upper extremity symptoms and disability. The RAND 36‐item Short Form Health Survey (RAND SF‐36) version 1.0 was performed to determine effects of infigratinib on health‐related quality of life over the duration of the study. Patient Reported Outcomes Measurement Information System (PROMIS) item banks for fatigue (PROMIS SF v1.0‐Fatigue 8a), mobility (PROMIS Bank v2.0 – Mobility), and pain interference (PROMIS SF v1.1‐Pain Interference 8a) were also performed. Strength assessments included a Six‐Minute Walk Test, Grip Strength assessment, Pinch Strength assessment, and Five Time Sit to Stand. The Grip Strength assessment was performed on the dominant hand using a JAMAR Hand Dynamometer (Sammons Preston, Inc., Bolingbrook, IL, USA) and three successive trials were averaged to determine the final score. The Pinch Strength assessment was performed using the Exacta Hydraulic Pinch Gauge (North Coast Medical, Inc., Morgan Hill, CA, USA) with three successive trials averaged for the final score.

[2] = set-up: method as in earlier work; conditions: subjects with cholangiocarcinoma; no reactions above grade 2; cited from earlier work
[3] = test system: phosphaturic mesenchymal tumors; assay: 18F-FDG-PET/CT and 68Ga-DOTATATE-PET/CT of tumors before and after infigratinib; format: in vivo, human
Experimental: In patients with identifiable tumors, recent prior imaging was obtained from the patient record. The imaging studies that best characterized their tumor prior to therapy (18Flouride‐Fluorodeoxyglucose (FDG) DG‐PET/CT and/or 68Gallium (68Ga)‐DOTATATE‐PET/CT) were repeated at the 24‐week visit, if clinically indicated, and the changes were assessed.

[4] = Safety and adverse events (CTCAE) in the phase 2 TIO trial; format: in vivo, human
Experimental: as §1
The primary objective of the study was to induce a persistent metabolic remission, defined by normalization of FGF23 and phosphate after study drug discontinuation. Secondary objectives included evaluating the effects of infigratinib on mineral homeostasis, radiographic appearance of PMTs, quality of life, and muscle strength. Key biochemical end points included changes in iFGF23, cFGF23, phosphate, 1,25D, TRP, and TmP/GFR. Because the study closed prematurely with only four patients enrolled, results were primarily descriptive. Adverse events were summarized by frequency and percentage. Continuous variables were presented as mean ± standard deviation (SD). Linear mixed effects models were fitted to the repeated measures data collected from the 24‐hour serial sampling and the first 8 weeks of therapy when the patients were on the same infigratinib dose (75 mg daily) because, after this point, dose reductions and interruptions occurred. Analysis was performed using SAS (version 9.4; SAS Institute, Inc., Cary, NC, USA). Graphs were produced using GraphPad Prism 8 (GraphPad Software, Inc., La Jolla, CA, USA).

[5] = 24-hour pharmacokinetics after the first oral dose of infigratinib 75 mg in patients with TIO; format: in vivo; conditions: human, blood
Experimental: (§2) Serial sampling was performed every 2 hours for 24 hours after the first dose of infigratinib to evaluate the pharmacokinetics and pharmacodynamics of the drug. Subsequently, laboratory tests were performed every 2 weeks. Routine blood and urine chemistries were performed at the NIH Clinical Center Department of Laboratory Medicine during inpatient stays and outpatient visits. Laboratory testing in the intervening weeks were performed either at the NIH or at a local laboratory, depending on the patient's proximity to the NIH. Infigratinib levels were also measured at weeks 4 and 8.
(§3) Biochemical testing included measurement of routine chemistries, 1,25D (radioimmunoassay; Mayo Medical Laboratories, Rochester, MN, USA), cFGF23 (ELISA; Immutopics International, San Clemente, CA, USA; Mayo Medical Laboratories), iFGF23 (ELISA; Immutopics International), C‐telopeptide (CTx) (electrochemiluminescence immunoassay; Mayo Medical Laboratories), and procollagen 1 intact N‐terminal (P1NP) (competitive radioimmunoassay; Mayo Medical Laboratories). Infigratinib levels were measured by Q2 Lab Solutions (Durham, NC, USA).

PMT metastases = test system: PMT metastases; set-up: method as in PMID 32905668; conditions: one patient with metastatic TIO, while on therapy, cited from earlier work
[6] = test system: FGF23 (intact and C-terminal), blood phosphate; assay: Biochemical response (iFGF23, cFGF23, phosphate, 1,25D, TRP) in patients with TIO on daily infigratinib; format: in vivo, human
Experimental: Subjects received oral daily doses of infigratinib for up to 24 weeks. The initial dose of 75 mg daily was based on studies investigating infigratinib use in subjects with cholangiocarcinoma, as well as our clinical experience with two NIH patients with TIO who had previously participated in an infigratinib trial outside of the NIH (ClinicalTrials.gov NCT02160041). After 8 weeks on therapy, dose escalation and de‐escalation of drug was determined by investigators based on tolerability and changes in C‐terminal FGF23 (cFGF23) levels. Planned dose escalation would occur by 25 mg every 8 weeks to a maximum dose of 125 mg/d if cFGF23 levels were not suppressed to <100 relative units (RU)/mL. De‐escalations or interruptions would occur if a subject experienced an adverse event, including hyperphosphatemia. A cFGF23 assay that measures both the active intact FGF23 molecule and inactivated C‐terminal fragments was used for titration purposes rather than an intact FGF23 (iFGF23) assay because the cFGF23 assay was the only commercially available option at the time.
as §2, §3
Tubular reabsorption of phosphate (TRP) was calculated using the following equation: 100 × [1 – (urine phosphate × serum creatinine)/(serum phosphate × urine creatinine)] and maximum renal tubular phosphate reabsorption in mass per unit volume of glomerular filtrate (TmP/GFR) was determined using the following equations: for TRP ≤0.86 (86%): TmP∕GFR = TRP × phosphate; for TRP >0.86 (86%): TmP∕GFR = (0.3 × TRP)/[1 − (0.8 × TRP)] ×phosphate.^( [20] ^)
At the end of week 24, patients still on therapy were admitted again to the NIH Clinical Center to monitor off‐drug effects with daily blood and urine sampling × 7 days. Subjects with persistent biochemical remission after 7 days would be monitored as outpatients off therapy for 12 additional weeks. Subjects with normal phosphate levels on infigratinib but without persistent biochemical response on cessation were considered for an optional extension phase.

[7] = Subject 1, single oral dose 75 mg
[8] = Subject 2, single oral dose 75 mg
[9] = Subject 3, single oral dose 75 mg
[10] = Subject 4, single oral dose 75 mg
[11] = Subject 2, 75 mg then 50 mg daily, up to 24 weeks

SMILES: CCN1CCN(c2ccc(Nc3cc(N(C)C(=O)Nc4c(Cl)c(OC)cc(OC)c4Cl)ncn3)cc2)CC1 [Infigratinib]
- Grip Strength Evaluation ([1]; 8 Weeks, N=4, mean+/-SD): 18+/-9 kilograms
- PROMIS – Mobility Item Bank T score (higher = better) ([1]; 8 Weeks): 39+/-5
- RAND – Role limitations due to physical health problems ([1]; 8 Weeks): 68+/-31
- RAND SF-36 Physical Functioning (0-100, higher better) ([1]; 8 Weeks): 51+/-17
- RAND – Energy/Fatigue ([1]; 8 Weeks): 53+/-22
- RAND – Bodily Pain ([1]; 8 Weeks): 63+/-37
- PROMIS – Fatigue 8A Short Form T score (higher = increased fatigue) ([1]; 8 Weeks): 53+/-8
- PROMIS – Pain Interference 8A short form T score (higher = increased pain interference) ([1]; 8 Weeks): 52+/-6
- RAND – Social functioning ([1]; 8 Weeks): 78+/-21
- RAND – General health perceptions ([1]; 8 Weeks): 73+/-17
- RAND – Emotional well-being ([1]; 8 Weeks): 72+/-13
- RAND – Role limitations due to emotional health problems ([1]; 8 Weeks): 75+/-32
- Pinch Test ([1]; 8 Weeks, mean+/-SD): 6.8 +/-1 kilograms
- 5x Sit to stand ([1]; 8 Weeks, mean+/-SD): 14 ± 1 s
- DASH score (0 no disability, 100 severe disability) ([1]; 8 Weeks, mean+/-SD): 14+/-5
- 6 Minute Walk Test ([1]; 24 Weeks, N=4, mean+/-SD, baseline 474+/-250, normal range 391-751): 474+/-250 496+/-173 meters
- PROMIS – Mobility Item Bank T score (higher = better) ([1]; 24 Weeks): 39+/-3
- RAND – Role limitations due to physical health problems ([1]; 24 Weeks): 25+/-50
- RAND SF-36 Physical Functioning (0-100, higher better) ([1]; 24 Weeks): 40+/-6
- RAND – Energy/Fatigue ([1]; 24 Weeks): 49+/-33
- RAND – Bodily Pain ([1]; 24 Weeks): 36+/-2.5
- PROMIS – Fatigue 8A Short Form T score (higher = increased fatigue) ([1]; 24 Weeks): 52+/-9
- PROMIS – Pain Interference 8A short form T score (higher = increased pain interference) ([1]; 24 Weeks): 53+/-9
- RAND – Social functioning ([1]; 24 Weeks): 72+/-33
- RAND – General health perceptions ([1]; 24 Weeks): 71+/-18
- RAND – Emotional well-being ([1]; 24 Weeks): 62+/-10
- RAND – Role limitations due to emotional health problems ([1]; 24 Weeks): 41.7+/-50
- Pinch Test ([1]; 24 Weeks, mean+/-SD): 7+/-1 kilograms
- 5x Sit to stand ([1]; 24 Weeks, mean+/-SD): 11 ± 1 s
- Grip Strength Evaluation ([1]; 24 Weeks, mean+/-SD): 16+/-1 kilograms
- DASH score (0 no disability, 100 severe disability) ([1]; 24 Weeks, mean+/-SD): 12+/-8
- Blurred vision, share of patients [2]: 21%
- Dry eye, including keratitis, share of patients [2]: 44%
- Tumor size change after treatment ([3]; Subjects 1 and 2, after 6 months): without appreciable change in size
- Reduction of SUVmax of the PMTs after treatment ([3]; all studies except Subject 1 68Ga scans): greater than 40%
- Serious adverse events ([4]; 4 subjects): No subjects experienced serious adverse events
- Total Number of Adverse Events ([4]; 4 subjects): 111
- Grade 3 AEs (CTCAE) ([4]; both improved following drug interruption): increased alanine aminotransferase and decreased neutrophil count in subject 2
- Corneal keratitis with blurred vision ([4]; continuous daily dosing, drug interruptions required in two patients): all patients developed corneal keratitis with blurred vision
- Time to normalization of vision after infigratinib discontinuation ([4]; in vivo): ≤ 60 days
- Number of AEs considered possibly, probably, or definitely related to infigratinib ([4]; of 111 AEs): 87
- Corneal scarring, share of subjects ([4]; subjects who developed ocular keratitis on infigratinib): 50%
- AUC [5, 7]: 89.7 ng·h/mL
- Cmax [5, 7]: 28.6 ng/mL
- Tmax [5, 7]: 2 h
- half-life [5, 7]: 2.73 h
- AUC [5, 8]: 1090 ng·h/mL
- Cmax [5, 8]: 176 ng/mL
- Tmax [5, 8]: 2 h
- half-life [5, 8]: 7.75 h
- AUC [5, 9]: 133 ng·h/mL
- Cmax [5, 9]: 23.8 ng/mL
- Tmax [5, 9]: 4 h
- half-life [5, 9]: 3.02 h
- AUC [5, 10]: 764 ng·h/mL
- Cmax [5, 10]: 67.9 ng/mL
- Tmax [5, 10]: 6 h
- half-life [5, 10]: 7.62 h
- FGF23 change (PMT metastases): significant decreases in FGF23
- Tumor burden (PMT metastases; reversed with cessation): profound reduction in tumor burden
- TRP change ([6]; 75 mg daily, by week 8): increased in all patients
- cFGF23 decrease from baseline [6, 11]: 89%
- iFGF23 decrease from baseline [6, 11]: 95%
- Reduction in cFGF23 ([6]; Subject 2, first 24 hours after first 75 mg dose): 82%
- Biochemical response while on therapy ([6]; Subject 2, neither intact nor C-terminal FGF23 ever normalized): significant biochemical response
- iFGF23 nadir ([6]; Subject 2, normal <54 pg/mL): 171 pg/mL
- cFGF23 nadir ([6]; Subject 2, normal <180 RU/mL): 241 RU/mL
- Metabolic response while on therapy ([6]; Subjects 1, 3 and 4, reversed rapidly with drug cessation): complete metabolic response
- Biochemical response ([6]; all patients, 75 mg daily, week 8): partial biochemical response
- Phosphate levels change ([6]; first 24 hours after first 75 mg dose, p < 0.0001, none exceeded lower limit of normal at hour 24): increased
- iFGF23 change ([6]; first 24 hours after first 75 mg dose, p < 0.001): decreased significantly
- Enduring metabolic remission (persistently normal FGF23 and blood phosphate following drug discontinuation), primary objective ([6]; four TIO patients, up to 24 weeks daily oral): no subject achieved the primary objective
